Measurements reported in patent publication US20180057505A1, “BICYCLIC HETEROARYL COMPOUNDS USEFUL AS INHIBITORS OF THE PAR-2 SIGNALING PATHWAY” (VERTEX PHARMACEUTICALS INCORPORATED, priority 2015, published 2018).

Tests used:
Format in all cases: cell-based
[1] = system: Thrombin-stimulated Ca2+ response in HT-29 cells; assay: Ca FLIPR TETRA assay, ANTAGONIST mode, activator 1 U/mL Thrombin; details: HT-29 cells, activator 1 U/mL Thrombin
Outline: (§1)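 Antagonist mode, HT-29: cells O/N 37 °C, 1% FBS; calcium 5 dye 45 min 37 °C + 15 min RT; cpd (DMSO, HBSS-diluted) 30 min RT; activator at final conc. (8 μM SLIGKV / 1 U/mL thrombin / 3.1 U/mL trypsin / 0.6 μM UTP); FLIPR Tetra Ca2+ read.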

[2] = biological target: T1, PAR2 (HT-29 cells) (Homo sapiens, UniProt P55085); assay: Ca FLIPR TETRA assay, ANTAGONIST mode, activator 8 μM SLIGKV; details: HT-29 cells, activator 8 μM SLIGKV
T1 construct: host or cells: HT-29
T1 sequence (P55085 26-397): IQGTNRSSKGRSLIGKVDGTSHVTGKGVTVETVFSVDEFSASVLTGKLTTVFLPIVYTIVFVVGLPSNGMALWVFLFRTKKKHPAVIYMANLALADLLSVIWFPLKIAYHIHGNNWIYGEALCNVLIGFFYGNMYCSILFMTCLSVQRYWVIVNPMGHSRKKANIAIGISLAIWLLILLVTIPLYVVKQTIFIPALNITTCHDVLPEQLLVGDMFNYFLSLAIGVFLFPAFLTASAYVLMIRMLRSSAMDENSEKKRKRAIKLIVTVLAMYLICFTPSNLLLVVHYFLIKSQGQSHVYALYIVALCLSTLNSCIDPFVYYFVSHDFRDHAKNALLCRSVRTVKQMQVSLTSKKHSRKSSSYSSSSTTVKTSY
Outline: as §1

[3] = biological target: T1, PAR2 (HT-29 cells); assay: Ca FLIPR TETRA assay, ANTAGONIST mode, activator 3.1 U/mL trypsin; details: HT-29 cells, activator 3.1 U/mL trypsin
Outline: as §1

[4] = system: UTP-stimulated Ca2+ response in HT-29 cells; assay: Ca FLIPR TETRA assay, ANTAGONIST mode, activator 0.6 μM UTP; details: HT-29 cells, activator 0.6 μM UTP
Outline: as §1

[5] = maximal antagonist concentration per Method (A: 0.1, 1 or 2 μM; B: 50 μM)
[6] = Method A: maximal concentration of antagonist 0.1, 1 or 2 μM

SMILES	IC50 ([1]; Homo sapiens) [nM]	IC50 [2, 5] [nM]	IC50 [3, 5] [nM]	IC50 ([4]; Homo sapiens) [nM]	IC50 [2, 6] [nM]	IC50 [3, 6] [nM]	IC50 [1] [nM]	IC50 [4] [nM]
[2H]C([2H])([2H])N1CCN(C(=O)c2cc3nc(-c4ccc(F)c(Cl)c4)cc(C(C)(C)C)c3o2)C(C)(C)C1=O [Example I-239]	> 2000	6.1	5.4	> 2000				
CC(C)(C)c1cc(-c2ccc(Cl)cc2)nc2cc(C(=O)N3CCN(C(=O)CCC(=O)O)CC3(C)C)oc12 [Example I-420]	> 1250			> 1250	4.6	9.8		
C[C@H]1CN(C(=O)c2cc3nc(-c4ccc(F)cc4)cc(C4(C)CC4)c3o2)CCN1C(=O)C(C)(C)O [Example I-109]	12000	2300	3400	11000				
CC(C)C[C@@H](O)C(=O)N1CCN(C(=O)c2cc3nc(-c4ccc(F)cc4)cc(C4(C)CC4)c3o2)C(C)(C)C1 [Example I-36]	31000	0.97	1.5	> 26000				
CC1(C)CCC(c2cc(C(C)(C)C)c3oc(C(=O)N4CCN(C(=O)[C@H]5C[C@@](C)(O)C5)CC4(C)C)cc3n2)CC1 [Example I-228]	> 2000	0.9	1.4	> 2000				
CC(C)(C)c1cc(-c2ccc(Cl)cc2)nc2cc(C(=O)N3CCC(c4ncc(C(=O)O)cn4)CC3(C)C)oc12 (centres unmarked) [Example I-429]					0.4	0.5	400	440
CC(C)c1cc(-c2ccc(F)cc2)nc2oc(C(=O)N3CCNC(=O)C3(C)C)nc12 [Example I-133]	20000	5900	7500	20000				
CC1(C)CCC(c2cc(C(C)(C)C)c3oc(C(=O)N4CCN(C(=O)[C@H]5CC[C@](C)(C(=O)O)CC5)CC4(C)C)cc3n2)CC1 [Example I-306]	1400			1800	4.7	17		
CC(C)(C)c1cc(C2CCCCCC2)nc2cc(C(=O)N3CCNC(=O)C3(C)C)oc12 [Example I-214]	> 1000	27	26	> 1000				
Cc1cc(C(=O)O)nc(N2CCN(C(=O)c3cc4nc(C5CCC(C)(C)CC5)cc(C(C)(C)C)c4o3)C(C)(C)C2)n1 [Example I-408]	860			510	0.7	1		
CC1(C)CN(C(=O)[C@H]2C[C@@](C)(O)C2)CCN1C(=O)c1cc2nc(-c3ccc(Cl)c(F)c3)cc(C3(C#N)CC(F)(F)C3)c2o1 [Example I-300]	> 2000			> 2000	1.6	1.6		
CC(C)(C)c1cc(C2CCC(F)(F)CC2)nc2cc(C(=O)N3CCN(C(=O)[C@H]4CC[C@@](C)(C(=O)O)CC4)C(=O)C3(C)C)oc12 [Example I-220]		6.7	13				> 2000	> 2000
CCCS(=O)(=O)N1CCN(C(=O)c2cc3nc(-c4ccc(F)cc4)cc(C4(C)CC4)c3o2)C(C)(C)C1 [Example I-107]	> 50000	34	28	> 50000				
CC(C)(C)c1cc(C2CCCC2)nc2cc(C(=O)N3CCNC(=O)C3(C)C)oc12 [Example I-215]	> 1000	96	300	> 1000				
CC1(C)CN(C(=O)C2CC(O)(C(F)(F)F)C2)CCN1C(=O)c1cc2nc(-c3ccc(F)cc3)cc(C3(C#N)CC(F)(F)C3)c2o1 (centres unmarked) [Example I-205]	> 1000	0.6	1	> 1000				
CC(C)(C)c1cc(-c2ccc(Cl)cc2)nc2cc(C(=O)N3CCN(C(=O)CC4(C(=O)O)CCCC4)CC3(C)C)oc12 [Example I-493]	> 2000			> 2000	0.4	0.4		
Cc1cc(C(=O)N2CCN(C(=O)c3cc4nc(-c5ccc(F)cc5)cc(C(C)C)c4o3)C(C)(C)C2)on1 [Example I-138]	> 1000	2	2.2	> 1000				
CC1(C)CCC(c2cc(C(C)(C)C)c3oc(C(=O)N4CCN(C(=O)CC[C@H](N)C(=O)O)CC4(C)C)cc3n2)CC1 [Example I-377]	> 2000			> 2000	400	470		
CC(C)c1cc(-c2ccc(F)cc2)nc2cc(C(=O)N3CCN(C(=O)OC(C)(C)C)CC3(C)C)oc12 [Example I-6]	> 50000	3.2	4.2	36000				

More lines, now with the values ahead:

IC50 ([1]; Homo sapiens) [nM]	IC50 [2, 5] [nM]	IC50 [3, 5] [nM]	IC50 ([4]; Homo sapiens) [nM]	IC50 [2, 6] [nM]	IC50 [3, 6] [nM]	IC50 [1] [nM]	IC50 [4] [nM]	SMILES
> 2000			> 2000	6.3	9.6			CC(C)(C)c1cc(-c2ccc(Cl)c(F)c2)nc2cc(C(=O)N3CCNC(=O)CC3(C)C)oc12 [Example I-336]
> 1000	0.7	1	> 1000					Cc1nnc(C(=O)N2CCN(C(=O)c3cc4nc(-c5ccc(Cl)cc5)cc(C(C)(C)C)c4o3)C(C)(C)C2)[nH]1 [Example I-178]
> 2000			> 2000	19	19			CC(C)(C)c1cc(-c2ccc(Cl)cc2)nc2cc(C(=O)N3CCN(c4ccnc(C(=O)O)n4)CC3(C)C)oc12 [Example I-415]
> 2000			> 2000	5.4	7.4			CC(C)(C)c1cc(-c2ccc(Cl)c(F)c2)nc2cc(C(=O)N3CCN(c4cccc(C(N)=O)n4)CC3(C)C)oc12 [Example I-546]
				0.1	0.3	1800	1200	CC(C)(C)c1cc(-c2ccc(Cl)c(F)c2)nc2cc(C(=O)N3CCC(c4nc(C(=O)O)cs4)CC3(C)C)oc12 (centres unmarked) [Example I-424]
> 2000	13	14.5	> 2000					Cc1cc(N2CCN(C(=O)c3cc4nc(-c5ccc(Cl)c(F)c5)cc(C(C)(C)C)c4o3)C(C)(C)C2=O)[nH]n1 [Example I-284, 4-[7-tert-butyl-5-(4-chloro-3-fluoro-phenyl)furo[3,2-b]pyridine-2-carbonyl]-3,3-dimethyl-1-(3-methyl-1H-pyrazol-5-yl)piperazin-2-one]
> 2000			> 2000	14	26			CC(C)(C)c1cc(-c2ccc(Cl)c(F)c2)nc2cc(C(=O)N3CCN(c4ncncc4C(=O)O)CC3(C)C)oc12 [Example I-519]
> 2000	1.8	2.4	> 2000					[2H]C([2H])([2H])N1CCN(C(=O)c2cc3nc(-c4ccc(Cl)c(F)c4)cc(C(C)(C)C)c3o2)C(C)(C)C1=O [Example I-237]
> 2000			> 2000	0.3	0.8			CC(C)(C)c1cc(-c2ccc(Cl)c(F)c2)nc2cc(C(=O)N3CCN(c4ccc(C(=O)O)c(N)n4)CC3(C)C)oc12 [Example I-510]
> 2000			> 2000	1.4	2.3			CC(C)(C)c1cc(-c2ccc(Cl)c(F)c2)nc2cc(C(=O)N3CCN(c4cc(C(=O)O)c(F)cn4)CC3(C)C)oc12 [Example I-517]
				0.6	0.9	> 2000	> 2000	Cc1oc(C2CCN(C(=O)c3cc4nc(-c5ccc(Cl)c(F)c5)cc(C(C)(C)C)c4o3)C(C)(C)C2)nc1C(=O)O (centres unmarked) [Example I-430]
> 2000			> 2000	1.1	1.4			CC(C)(C)c1cc(-c2ccc(Cl)cc2)nc2cc(C(=O)N3CCN(c4ccc(C(=O)O)nn4)CC3(C)C)oc12 [Example I-471]
> 2000	1.2	1.8	> 2000					Cc1ccnc(N2CCN(C(=O)c3cc4nc(-c5ccc(Cl)c(F)c5)cc(C(C)(C)C)c4o3)C(C)(C)C2=O)n1 [Example I-276]
> 2000			> 2000	1.5	1			CC(C)(C)c1cc(-c2ccc(Cl)c(F)c2)nc2cc(C(=O)N3CCC(NC(=O)NS(C)(=O)=O)CC3(C)C)oc12 (centres unmarked) [Example I-541]
> 2000			> 2000	0.2	0.3			CC(C)(C)c1cc(-c2ccc(Cl)c(F)c2)nc2cc(C(=O)N3CCN(c4nc(C(=O)O)ccc4Cl)CC3(C)C)oc12 [Example I-365]
				1.5	3.4	600	750	CC(C)(C)c1cc(-c2ccc(F)cc2)nc2cc(C(=O)N3CCN(c4cnc(C(=O)O)cn4)CC3(C)C)oc12 [Example I-421]
